Patent US9416181B2, “Compositions for cell culture and methods of using the same” (AbbVie Inc., priority 2013, dated 2016)

Assays:
Type in all cases: cell-based, Chinese Hamster
[1] = tested on: Cell Line 1 (CHO) expressing Antibody 1; test: Acidic species variants (WCX-10) of Antibody 1, Cell Line 1 3 L bioreactor fed-batch culture; details: 0.1 g/L in CDFM, Day 15 harvest
Protocol: (§1) A recombinant Chinese Hamster Ovary (CHO) cell line (Cell Line 1) expressing a humanized monoclonal antibody (Antibody 1) was evaluated in 2 different cultures vessels (shaker flasks and 3 L laboratory-scale bioreactors). The cell line was of CHO DUX-B11 origin based on a DHFR (dihydrofolate reductase) expression system and cultured in a chemically defined basal media, and fed periodically with a chemically-defined feed media (CDFM). The media utilized throughout all of the experiments were chemically-defined, and both animal-component free, and protein-free. Each of the respective media were supplemented as needed with selected bioflavonoids to evaluate for their potential impact on the resulting acidic species profile. In preparation of the cultures, the cell lines were serially expanded through separate seed train inoculums to generate enough cells for inoculation. Process conditions utilized during the cultures were slightly different depending on the culture scale, but similar within each scale to the respective non-bioflavonoid supplemented control conditions. All bioflavonoids utilized were purchased from Sigma-Aldrich (St. Louis, Mo.).
(§2) Samples were analyzed using an HPLC system equipped with a ProPac WCX-10 analytical column (Thermo Scientific, Sunnyvale, Calif.). Approximately 100 μg of sample was loaded in 6% Buffer B (10 mM sodium phosphate, 500 mM NaCl, pH 5.5) and 94% Buffer A (10 mM sodium phosphate, pH 7.5). The column was run at a flow rate of 1.0 mL/min. The protein was eluted from the column by increasing the buffer B composition from 6% to 16% over 20 minutes. The protein peaks were measured using UV absorbance at 280 nm as the peaks eluted from the column. The column was regenerated using 100% buffer B followed be a re-equilibration period using initial condition before the injection of the next sample. Peaks eluting before the main peak were termed “acidic peaks” and peaks eluting after the main peak were called “basic peaks” (FIG. 2).
In the next experiment, lab-scale bioreactors were used to (1) confirm the shaker experiment results and (2) to determine whether higher concentration range of EGCG is suitable for supplementing into cell culture. EGCG was added to the feed of the batch culture at the concentrations of 20 mg/L (mid), 50 mg/L (high) and 125 mg/L (high+) and 250 mg/L (high++) in this reactor experiment.
Cell Line 1 was evaluated in larger-scale feed batch cultures with the feed media supplemented with various bioflavonoids. […] By contrast, cell growth performance was slightly different for the 0.1 g/L EGCG supplemented condition. […] However, the cell viability remained high at 0.1 g/L EGCG. All cultures were successfully harvested on Day 15 post-inoculation. The harvest titers measured from the evaluated cultures were similar.
Cell Line 1 was also evaluated in laboratory-scale fedbatch cultures with the feed media supplemented with various bioflavonoids. […] Cell growth performance was slightly different however with the 0.1 g/L EGCG supplemented condition. […] All cultures were able to be successfully harvested on Day 15 post-inoculation.

[2] = tested on: Cell Line 1 (CHO) expressing Antibody 1; test: Cell culture performance (cell growth, viability, titer), Cell Line 1 shake flask fed-batch culture; details: for relative harvest titer vs unsupplemented control / cell growth profile vs unsupplemented control: shake flask; for cell growth profile vs unsupplemented control: 3 concentrations in CDFM up to 0.5 g/L (genistein) or 1 g/L (rutin, naringin)
Protocol: as §1
(§3) Viable cell density (VCD) and cell viability values were measured through trypan blue exclusion via Cedex automated cell counters (Roche Applied Science, Indianapolis, Ind.), glucose and lactate values were measured with a ABL-805 (Radiometer Medical, Denmark) blood gas analyzer. Offline pH, dissolved oxygen (DO), and pCO2 measurements were performed as needed with an ABL-805 (Radiometer Medical, Denmark) blood gas analyzer. Osmolality was measured as needed on a Multi-Osmette 2430 osmometer (Precision Systems, Natick, Mass.).
Antibody titers were measured from crude cell culture harvests on a Poros A™ (Life Technologies, Carlsbad, Calif.) affinity column using an HPLC system operating with a low pH, step elution gradient with detection at 280 nm. Absolute concentrations were assigned with respect to reference standard calibration curves.
(§4) In this Example, EGCG was added into the feed (cell culture medium) at the concentration range of 5 mg/L (low), 20 mg/L (mid) and 50 mg/L (high) in a shaker experiment to determine the impact of EGCG on product quality of a humanized monoclonal antibody (Antibody 1). Detailed cell culture conditions are as described in Table 1.
(§5) However, it was not clear whether or not additional bioflavonoids would also have the same effects. To evaluate the impact of alternative bioflavonoids, fed-batch shake flask cultures were initiated with CDFM supplemented with 3 different concentrations of genistein, rutin, and naringin, in addition to EGCG. Cell growth, viability, as well as titers and acidic species variants were measured.
(§6) To evaluate the impact of other bioflavonoids, fed-batch shake flask cultures were initiated with CDFM supplemented with multiple concentrations of rutin. Cell growth, viability, as well as titers and acidic species variants were measured and shown in FIGS. 14 and 15, respectively.

[3] = tested on: Cell Line 4 (CHO) expressing DVD2
Protocol: (§7) Four different recombinant Chinese Hamster Ovary (CHO) cell lines expressing four different recombinant glycoproteins were evaluated in either shaker flask culture, or 3 L laboratory scale bioreactors. Cell Line 1 was genetically engineered to express Antibody 1, Cell Line 2 was genetically engineered to express Antibody 2, Cell Line 3 was genetically engineered to express dual variable domain immunoglobulin 1 (DVD1) and Cell Line 4 was genetically engineered to express dual variable domain immunoglobulin 2 (DVD2).
as §3, with “pCO2 (Dissolved carbon dioxide)” for “pCO2”
Protein A Affinity Chromatography-Antibody titers were measured from crude cell culture harvests on a Poros ATM (Life Technologies, Carlsbad, Calif.) affinity column using an HPLC system operating with a low pH, step elution gradient with detection at 280 nm. […]

[4] = tested on: Cell Line 1 (CHO) expressing Antibody 1; test: Acidic species variants (WCX-10) of Antibody 1, Cell Line 1 shake flask fed-batch culture; details: shake flask
Protocol: as §1, §2, §4, §5
(§8) Charge Heterogeneity via Weak Cation Exchange Chromatography-Samples were analyzed using an HPLC system equipped with a ProPac WCX-10 analytical column (Thermo Scientific, Sunnyvale, Calif.). Approximately 100 μg of sample was loaded in 6% Buffer B (10 mM sodium phosphate, 500 mM NaCl, pH 5.5) and 94% Buffer A (10 mM sodium phosphate, pH 7.5). The column was run at a flow rate of 1.0 mL/min. The protein was eluted from the column by increasing the buffer B composition from 6% to 16% over 20 minutes. The protein peaks were measured using UV absorbance at 280 nm as the peaks eluted from the column. The column was regenerated using 100% buffer B followed be a re-equilibration period using initial condition before the injection of the next sample. Peaks eluting before the main peak were termed ‘acidic peaks’ and peaks eluting after the main peak were called ‘basic peaks’ (FIG. 2).
as §6

[5] = tested on: Cell Line 4 (CHO) expressing DVD2; test: Acidic species variants (WCX-10), Cell Line 4 shake flask culture
Protocol: as §7
as §8, with “The column was regenerated using 100% buffer B followed be a re-equilibration period using initial condition before the injection of the next sample. Peaks eluting before the main peak were termed ‘acidic peaks’ and peaks eluting after the main peak were called ‘basic peaks’ (FIG. 2).” left out
as §6

Structure (SMILES)	drop in absolute acidic species percentage points ([1]; 3 L bioreactor)	relative total AR (ratio to Day 8 value of unsupplemented control) ([1]; bioreactor)	concentration above which peak viable cell density dropped lower than unsupplemented control [2]	relative harvest titer vs unsupplemented control ([2]; 0.01 g/L in CDFM)	relative harvest titer vs unsupplemented control ([2]; 0.1 g/L in CDFM)	relative harvest titer vs unsupplemented control ([2]; 1 g/L in CDFM, statistically significant)	drop in harvest titer ([2]; CDFM supplemented to 1 g/L, Cell Line 1)	harvest cell viability ([2]; Chinese hamster, 1 g/L)	concentration above which peak viable cell density dropped lower than unsupplemented control [3]	increase in harvest titer ([3]; CDFM supplemented to 1 g/L, Cell Line 4)	ratio of acidic region to unsupplemented control ([4]; 0.1 g/L in CDFM)	ratio of acidic region to unsupplemented control ([4]; 1 g/L in CDFM)	ratio of acidic region to unsupplemented control ([5]; 0.1 g/L in CDFM)	ratio of acidic region to unsupplemented control ([5]; 1 g/L in CDFM)	cell growth profile vs unsupplemented control [2]
C[C@@H]1O[C@@H](OC[C@H]2O[C@@H](Oc3c(-c4ccc(O)c(O)c4)oc4cc(O)cc(O)c4c3=O)[C@H](O)[C@@H](O)[C@@H]2O)[C@H](O)[C@H](O)[C@H]1O [rutin]	5%	1.00	higher than 0.05 g/L	0.98	0.93	0.78	at most 22%	76%	> 100 µg/mL	9%	0.97	0.65	0.75	0.69	
C[C@@H]1O[C@@H](O[C@H]2[C@H](Oc3cc(O)c4c(c3)O[C@H](c3ccc(O)cc3)CC4=O)O[C@H](CO)[C@@H](O)[C@@H]2O)[C@H](O)[C@H](O)[C@H]1O [naringin]															lower than the unsupplemented control condition
O=c1c(-c2ccc(O)cc2)coc2cc(O)cc(O)c12 [genistein]															lower than the unsupplemented control condition
